Measured values reported in patent publication US9512117B2 (priority 2010, dated 2016).

Legend:
Phytophthora infestans = format: in vivo; settings: young tomato plants, protective spray, 100 ppm active ingredient, evaluation 7 days after inoculation; 0% = control, 100% = no infection
Plasmopara viticola = experiment: Plasmopara test (grapevine) / protective; format: in vivo; settings: young grapevine plants, protective spray, 10 ppm active ingredient, evaluation 6 days after inoculation; 0% = control, 100% = no infection
Procedure: Plasmopara Test (Grapevine)/Protective
• Solvent: 24.5 parts by weight of acetone • 24.5 parts by weight of dimethylacetamide • Emulsifier: 1 part by weight of alkylaryl polyglycol ether
To produce a suitable active ingredient formulation, 1 part by weight of active ingredient is mixed with the stated amounts of solvent and emulsifier, and the concentrate is diluted with water to the desired concentration.
To test for protective efficacy, young plants are sprayed with the active ingredient formulation at the stated application rate. After the spray coating has dried on, the plants are inoculated with an aqueous spore suspension of Plasmopara viticola and then remain in an incubation cabin at approx. 20° C. and 100% relative air humidity for 1 day. Subsequently, the plants are placed in a greenhouse at approx. 21° C. and approx. 90% air humidity for 4 days. The plants are then moistened and placed in an incubation cabin for 1 day.
Evaluation follows 6 days after the inoculation. 0% means an efficacy which corresponds to that of the control, whereas an efficacy of 100% means that no infection is observed.
In this test, the following inventive compounds show, at an active ingredient concentration of 10 ppm, an efficacy of 70% or more: […]

[1] = logP by HPLC on reversed-phase columns (C 18), EEC directive 79/831 Annex V.A8; format: physicochemical; settings: LC-MS; for chromatographic logP: reversed-phase HPLC column (C18), read-out: Log P [a]; for chromatographic logP / Log P [a]: acidic range, pH 2.7, 0.1% aqueous formic acid and acetonitrile; for Log P [b]: neutral range, pH 7.8, 0.001 molar aqueous ammonium hydrogencarbonate and acetonitrile
Procedure: The logP values were measured according to EEC directive 79/831 Annex V.A8 by HPLC (High Performance Liquid Chromatography) on reversed-phase columns (C 18), using the methods below:
^[a] The LC-MS determination in the acidic range is effected at pH 2.7 with 0.1% aqueous formic acid and acetonitrile (contains 0.1% formic acid) as eluents; linear gradient from 10% acetonitrile to 95% acetonitrile.
^[b] The LC-MS determination in the neutral range is effected at pH 7.8 using 0.001 molar aqueous ammonium hydrogencarbonate solution and acetonitrile as eluents; linear gradient from 10% acetonitrile to 95% acetonitrile.
The calibration is effected with unbranched alkan-2-ones (having 3 to 16 carbon atoms) with known logP values (logP values determined on the basis of the retention times by linear interpolation between two successive alkanones).

Structure (SMILES) | Eff. % (Phytophthora infestans) | Eff. % (Plasmopara viticola) | chromatographic logP [1] | Log P [a] [1] | Log P [b] [1]
Cc1ccc(Cl)cc1NC(=O)N1CCC(c2nc(C3=NOC(c4ccccc4C=O)C3)cs2)CC1 (centres unmarked) [Ex. 3, N-(5-Chloro-2-methylphenyl)-4-{4-[5-(2-formylphenyl)-4,5-dihydro-1,2-oxazol-3-yl]-1,3-thiazol-2-yl}piperidine-1-carboxamide] | 100% | 100% | 3.35 |  | 
C#CCOc1ccccc1C1CC(c2csc(C3CCN(C(=O)Nc4cc(C)ccc4C)CC3)n2)=NO1 (racemic) [Ex. 45] | 100% | 96% |  | 3.43[a]; | 3.41[b]
C#CCOc1cccc(Cl)c1C1CC(c2csc(C3CCN(C(=O)Nc4cc(C)ccc4C)CC3)n2)=NO1 (racemic) [Ex. 38] | 94% | 100% |  | 3.68[a]; | 3.57[b]
CS(=O)(=O)Nc1ccccc1C1CC(c2csc(C3CCN(C(=O)Nc4cc(C(F)F)ccc4C(F)F)CC3)n2)=NO1 (centres unmarked) [Ex. 6, N-[2,5-Bis(difluoromethyl)phenyl]-4-[4-(5-{2-[(methylsulphonyl)amino]phenyl}-4,5-dihydro-1,2-oxazol-3-yl)-1,3-thiazol-2-yl]piperidine-1-carboxamide] | 95% | 98% | 2.72 |  | 
Cc1cc(C(F)(F)F)nn1CC(=O)N1CCC(c2nc(C3=NOC(c4cccc(C=O)c4)C3)cs2)CC1 (centres unmarked) [Ex. 1] | 100% | 98% |  | 2.83[a] | 
C#CCOc1cccc(Cl)c1C1CC(c2csc(C3CCN(C(=O)Cn4nc(C(F)(F)F)cc4C)CC3)n2)=NO1 (centres unmarked) [Ex. 11] | 85% | 100% |  | 3.62[a]; | 3.53[b]
C=CCOc1cccc(F)c1C1CC(c2csc(C3CCN(C(=O)Cn4nc(C(F)(F)F)cc4C)CC3)n2)=NO1 (racemic) [Ex. 51] | 85% | 100% |  | 3.7[a]; | 3.61[b]
C=CCOc1cccc(Cl)c1C1CC(c2csc(C3CCN(C(=O)Nc4cc(C)ccc4C)CC3)n2)=NO1 (racemic) [Ex. 42] | 94% | 96% |  | 3.98[a]; | 3.91[b]
Cc1cc(C(F)(F)F)nn1CC(=O)N1CCC(c2nc(C3=NOC(c4ccccc4OC(=O)C4CC4)C3)cs2)CC1 (racemic) [Ex. 56] | 89% | 98% |  | 3.52[a]; | 3.41[b]
Cc1cc(C(F)(F)F)nn1CC(=O)N1CCC(c2nc(C3=NOC(c4ccccc4CS(C)(=O)=O)C3)cs2)CC1 (racemic) [Ex. 34] | 100% | 84% |  | 2.6[a] | 
Cc1cc(C(F)(F)F)nn1CC(=O)N1CCC(c2nc(C3=NOC(c4ccccc4C=O)C3)cs2)CC1 (centres unmarked) [Ex. 7, 2-{3-[2-(1-{[5-Methyl-3-(trifluoromethyl)-1H-pyrazol-1-yl]acetyl}piperidin-4-yl)-1,3-thiazol-4-yl]-4,5-dihydro-1,2-oxazol-5-yl}benzaldehyde] | 100% | 100% | 3.12 |  | 
COCCOc1ccccc1C1CC(c2csc(C3CCN(C(=O)Cn4nc(C(F)(F)F)cc4C)CC3)n2)=NO1 (racemic) [Ex. 55] | 92% | 93% |  | 3.27[a]; | 3.25[b]
C=CCOc1ccccc1C1CC(c2csc(C3CCN(C(=O)Nc4cc(C)ccc4C)CC3)n2)=NO1 (racemic) [Ex. 46] | 100% | 98% |  | 3.91[a]; | 3.81[b]
C=CCOc1c(F)cccc1C1CC(c2csc(C3CCN(C(=O)Cn4nc(C(F)(F)F)cc4C)CC3)n2)=NO1 (racemic) [Ex. 52] | 97% | 98% |  | 3.97[a]; | 3.84[b]
Cc1cc(C(F)(F)F)nn1CC(=O)N1CCC(c2nc(C3=NOC(c4cccc(OC(=O)C5CC5)c4)C3)cs2)CC1 (racemic) [Ex. 40] | 100% | 85% |  | 3.53[a]; | 3.47[b]
C=CCOc1cccc(Cl)c1C1CC(c2csc(C3CCN(C(=O)Cn4nc(C(F)(F)F)cc4C)CC3)n2)=NO1 (racemic) [Ex. 50] | 70% | 100% |  | 3.94[a]; | 3.83[b]
